The target of one assay is T1, GLK (MAP4K3) (Homo sapiens, UniProt Q8IVH8).
T1 construct: Recombinant proteins of kinase domains of various MAP4Ks were used
Description: In vitro kinase assay, recombinant kinase domain, myelin basic protein (MBP) as substrate. The assay is classed as biochemical. On the procedure:
GLK kinase activity was determined by measuring the rate of ADP production in the in vitro kinase reaction using ADP-GLO™ Kinase Assay kit. For the kinase reaction, recombinant proteins of the GLK kinase-domain (1 μg) were incubated with recombinant proteins of kinase-dead PKCθ (K409W; 0.15 μg) plus ATP (0.1 mM) or myelin basic protein (MBP) plus ATP (0.1 mM) in kinase buffer (40 mM Tris-HCl, pH7.5.20 mM MgCl2, 0.1 mg/ml BSA, 10 mM DTT and 0.1 mM Na3VO4) for 30 min at room temperature. We studied whether GLK inhibitors also suppress cancer cell migration. […] Moreover, both C1 (verteporfin) and C2 (alexidine dihydrochloride) treatments suppressed tumor growth in the xenograft mouse model using TC-1 lung cancer cells (FIG. 15). To study whether GLK deficiency results in a reduction of lung cancer metastasis, we used a metastatic Lewis lung carcinoma (LLC) mouse model by tail vein injection of luciferase-expressing LLC (LLC/luc) cells. We identified two GLK inhibitors (verteporfin and alexidine dihydrochloride)) using cell-based assays and in vitro kinase assays. […] The luciferase activity of LLC/luc cells in the mice was detected by In Vivo Imaging System. […] Inhibition of kinase activity of GLK (MAP4K3) or other MAP4Ks was determined by in vitro kinase assays using myelin basic protein (MBP) as a substrate. […]

The subject of a further assay is Lck-GLK Tg mice. Description: Treatment of Lck-GLK Tg mice, serum ELISA. It counts as in vivo, mouse. The settings on record: 0.556 nmole/g i.v. every 3 days for 30 days. The text has this:
(A to C) Effect of the GLK inhibitor C1 (verteporfin) administration (0.556 nmole/g every 3 days for 30 days) on serum IL-17A and autoantibodies in Lck-GLK Tg mice. (B) ELISA of indicated serum cytokines in Lck-GLK Tg mice treated with C1 (verteporfin) or PBS. (C) ELISA of serum autoantibodies in Lck-GLK Tg mice treated with C1 (verteporfin) or PBS. Means±SEM are shown. (D) Experimental autoimmune encephalomyelitis (EAE) induction in wild-type mice treated with PBS, or the GLK inhibitor C1 (verteporfin) and C2. Clinical scores are presented on a scale of 1 to 5 (left panel). ELISA of IL-17A in the sera from MOG-immunized mice at day 16 (right panel). (E) Collagen-induced arthritis (CIA) induction in wild-type mice treated with the GLK inhibitor C1 (verteporfin) or PBS. Clinical scores are presented on a scale of 1 to 16 (left panel). ELISA of IL-17A in the sera from collagen-immunized mice at day 28. […]
Serum levels of IL-1β, IL-4, IL-6, IL-12, IL-17F, IL-21, IL-22, IL-23, IFN-γ, TNF-α, and TGF-β were analyzed by individual ELISA kits purchased from eBioscience. The IL-17A levels were determined using an ELISA kit from Biolegend. The serum levels of anti-nuclear antibodies (ANA), anti-dsDNA antibody, and rheumatoid factor (RF) were analyzed by ELISA kits purchased from Alpha Diagnostic International. […]

Assay [1] concerns splenic T cells (Th17 differentiation). In words: In vitro Th17 differentiation, flow cytometry of IL-17A-producing CD4+ T cells. The assay is classed as cell-based, mouse. The settings on record: 1 or 5 μM during differentiation. On the procedure: (§1) (A) Flow cytometry of IL-17A-producing CD4^+ T cells. Splenic T cells were co-treated with verteporfin (C1) (1 or 5 μM) during Th17 differentiation in vitro. (B) Flow cytometry of IL-17A-producing CD4^+ T cells. Murine in vitro differentiated Th17 cells were stimulated with PMA plus ionomycin and co-treated with verteporfin (C1) (1 or 5 μM) for 30 min. (C) Flow cytometry of Foxp3-producing […] T cells. Splenic T cells were co-treated with verteporfin (C1) (5 μM) during Treg differentiation in vitro. (D) Flow cytometry of Foxp3-producing CD4^+ T cells, which were differentiated from CD4^+ T cells of wild-type or Lck-GLK transgenic mice.
CD4^+ splenic T cells were purified from mice. Cells (5×10^5) were cultured in 1 ml RPMI medium in 48-well plates coated with anti-CD3 (2 μg/ml) and anti-CD28 (3 μg/ml) antibodies. For Th17 differentiation, splenic CD4^+ cells were cultured in the medium containing IL-23 recombinant proteins (50 ng/ml, R&D), IL-6 recombinant proteins (20 ng/ml, R&D), TGF-β recombinant proteins (5 ng/ml, R&D), anti-IL-4 (5 μg/ml, Biolegend), and anti-IFN-γ (5 μg/ml, Biolegend) antibodies. For Th1 differentiation, CD4^+ splenic cells were cultured in the medium containing IL-12 recombinant proteins (5 ng/ml, R&D) and anti-IL-4 antibodies (1 μg/ml, Biolegend).

In assay [2] the test system is in vitro differentiated Th17 cells. Description: IL-17A production of in vitro differentiated Th17 cells, flow cytometry. It counts as cell-based, mouse. The settings on record: PMA plus ionomycin, 1 or 5 μM for 30 min. As for the experimental part: as §1
The test system of assay [3] is splenic T cells (Treg differentiation). In words: In vitro Treg differentiation, flow cytometry of Foxp3-producing CD4+ T cells. The assay is classed as cell-based, mouse. The settings on record: 5 μM. As for the experimental part: as §1

Structures can show the parent of a compound that is named as a salt.

T1 sequence (Q8IVH8 16-273 limits assumed): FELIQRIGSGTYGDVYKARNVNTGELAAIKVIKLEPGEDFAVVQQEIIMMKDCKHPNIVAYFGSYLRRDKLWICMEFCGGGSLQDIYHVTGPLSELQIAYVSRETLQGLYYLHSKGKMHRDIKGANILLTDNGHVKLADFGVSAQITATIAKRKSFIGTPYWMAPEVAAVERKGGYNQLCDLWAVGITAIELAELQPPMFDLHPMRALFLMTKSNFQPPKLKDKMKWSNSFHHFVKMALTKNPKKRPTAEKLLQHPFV

In the case of `C=Cc1c(C)c2cc3nc(cc4[nH]c(cc5nc(cc1[nH]2)C(C)=C5CCC(=O)O)c(CCC(=O)OC)c4C)[C@@]1(C)C3=CC=C(C(=O)OC)[C@H]1C(=O)OC` [C1, verteporfin], the IC50 at GLK (MAP4K3) is 1.15 nM. Moreover, the overproduction of autoantibodies result in the assay on Lck-GLK Tg mice is “abolished”. Besides, the “serum IL-17A levels” value in the assay with Lck-GLK Tg mice (vs PBS) is reported as “significantly decreased”. For the same compound, the Th17 differentiation entry in assay [1] is given as “inhibited”. Moreover, the “IL-17A production from in vitro differentiated Th17 cells” value in assay [2] is listed as “inhibited”. Moreover, the “in vitro Treg (Foxp3-expressing CD4+ T cell) differentiation” value in assay [3] is given as “enhanced”.
Take `CCCCC(CC)CNC(=N)NC(=N)NCCCCCCNC(=N)NC(=N)NCC(CC)CCCC` (stereo not shown) [C2, alexidine dihydrochloride]: on GLK (MAP4K3), the IC50 stood at 10.1 nM.

Values taken from patent US11360080B2, “AhR-ROR-γt complex as a biomarker and therapeutic target for autoimmune disease and IL-17A-associated disease” (NATIONAL HEALTH RESEARCH INSTITUTES, priority 2018, dated 2022).
